Values joined by “and” are separate entries in the source; they are usually repeats but may differ in a detail not shown here. Equal values may be shown once.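 Results reflect a 48-hour exposure of cells in 96-well plates to compound at five concentrations. The concentration for 50% growth inhibition is given as GI50. Definition used: TGI = concentration required for complete inhibition of growth.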
Legend:
Test in all cases: NCI anticancer screen, dose series, 48 h
[1] = test system: M19-MEL melanoma
[2] = test system: HT29 colon
[3] = test system: SF-268 CNS
[4] = test system: OVCAR-8 ovarian
[5] = test system: EKVX NSCLC
[6] = test system: SNB-19 CNS
[7] = test system: HL-60(TB) leukemia
[8] = test system: DMS 114 small cell lung
[9] = test system: OVCAR-4 ovarian
[10] = test system: BT-549 breast

SMILES | TGI [1] [µM] | TGI [2] | TGI [3] | TGI [4] [µM] | TGI [5] [µM] | TGI [6] [µM] | TGI [7] | TGI [8] [µM] | TGI [9] | TGI [10] | GI50 [2] | GI50 [3] | GI50 [4] | GI50 [5] | GI50 [6] | GI50 [10] | GI50 [7] | GI50 [9] | GI50 [1] [µM] | GI50 [8] [µM]
CC1=C(C(=O)Nc2ccc([N+](=O)[O-])cc2)C(c2ccccc2O)C(C(=O)Nc2ccc([N+](=O)[O-])cc2)=C(C)N1 | 64.4 | 57.8 µM | 49 µM | > 100 | 84.9 | > 100 | 48.2 µM | 44.8 | 73.8 µM |  |  |  |  |  |  |  |  |  |  | 
Nc1nc(NC2C=C(CO)C(O)C2O)c([N+](=O)[O-])c(=O)[nH]1 (stereo not drawn) | > 100 | > 100 µM | > 100 µM | > 100 | > 100 | > 100 |  | > 100 | > 100 µM |  |  |  |  |  |  |  |  |  |  | 
N#C/C(=C\Nc1ccccn1)C(=O)c1ccco1 |  | > 100 µM | > 100 µM | > 100 | > 100 | > 100 | > 100 µM |  | > 100 µM | > 100 µM |  |  |  |  |  |  |  |  |  | 
CCN(CC)CCCC(C)Nc1c2ccc(Cl)cc2nc2cc(OC)c(OC)cc12 (stereo not drawn) |  | 10.3 µM | 7.03 µM | 10.3 | 5.06 | 8.98 | 9.31 µM |  | 3.33 µM | 17.8 µM | 1.54 µM | 1.93 µM | 2.28 µM | 1.78 µM | 2.18 µM | 3.87 µM | 2.81 µM | 1.34 µM |  | 
COc1ccc(OC)c(NCC#N)c1 | > 100 | > 100 µM | > 100 µM | > 100 | > 100 | > 100 | > 100 µM | > 100 | > 100 µM |  |  |  |  |  |  |  |  |  |  | 
CN1CCC(C(=O)Nc2n[nH]c3nc(-c4ccc(O)cc4)c(Br)cc23)CC1 |  | 12.1 µM and 16.1 µM | 9.27 µM and 4.68 µM | > 20.2 | > 25 | > 25 | 4 µM and 1.25 µM |  | > 12.4 µM and 6.27 µM | 16.4 µM and 16.9 µM | 4.11 µM and 5.33 µM | 1.14 µM and 0.863 µM | 0.965 µM and 1.77 µM | 6.62 µM and 2.51 µM | 1.12 µM and 2.97 µM | 1.6 µM and 2.31 µM | 0.988 µM and 0.333 µM | 0.986 µM and 1.17 µM |  | 
COC1=C2C[C@H](O)C(C)C[C@@]2(OC)OC1=O (stereo partly drawn) | > 100 | > 100 µM | > 100 µM |  |  | > 100 | > 100 µM |  | > 100 µM |  |  |  |  |  |  |  |  |  |  | 
NC(CC(=O)Nc1ccc(Cl)cc1)=Nc1ccccc1 | > 100 | > 100 µM | > 100 µM | > 100 | > 100 | > 100 | > 100 µM |  | > 100 µM |  |  |  |  |  |  |  |  |  |  | 
CCO/C=C1\N=C(C(Cl)c2ccccc2)OC1=O (stereo not drawn) | > 100 | > 100 µM | > 100 µM | > 100 | > 100 | > 100 | > 100 µM | > 100 | > 100 µM |  |  |  |  |  |  |  |  |  |  | 
CC(=O)OCc1ccc(O)c(C=O)c1 |  | > 100 µM | > 100 µM | > 100 | > 100 | > 100 | > 100 µM |  | > 100 µM | > 100 µM |  |  |  |  |  |  |  |  |  | 
COc1cc([C@H]2c3cc4c(cc3[C@H](NCc3ccc([N+](=O)[O-])cc3)C3COC(=O)[C@H]32)OCO4)cc(OC)c1O (stereo partly drawn) | > 100 | 14.6 µM | > 25.9 µM | 7.62 | > 23.6 | 21.4 |  | > 25.3 | > 100 µM |  |  |  |  |  |  |  |  |  |  | 
CCOC(=O)[C@H]1CSC[C@@H](C(=O)OC)N1 | > 100 | > 100 µM | > 100 µM | > 100 | > 100 | > 100 | > 100 µM | > 100 | > 100 µM |  |  |  |  |  |  |  |  |  |  | 
CCCOC(=O)N[C@H]1CCc2cc(OC)c(OC)c(OC)c2-c2ccc(SC)c(=O)cc21 |  | > 39.4 µM | > 54.1 µM | > 100 | > 100 | > 100 | < 0.0129 µM |  | > 71.5 µM | 19.6 µM | < 0.01 µM | < 0.01 µM | < 0.01 µM | < 0.01 µM | < 0.01 µM | < 0.01 µM | < 0.01 µM |  |  | 
Fc1cccc(CSc2ncnc3c2ncn3C2CCCS2)c1 (stereo not drawn) |  | 32.7 µM | > 100 µM | 75.7 | 81.2 | > 100 | 32.1 µM |  | 83.1 µM | 79.5 µM |  |  |  |  |  |  |  |  |  | 
CC(C)(c1ccc(Oc2ccc(C#N)c(C#N)c2)cc1)c1ccc(Oc2ccc(C#N)c(C#N)c2)cc1 | > 100 | > 100 µM | > 100 µM | > 100 | > 100 | > 100 | > 100 µM | > 100 | > 100 µM |  | > 100 µM | > 100 µM | > 100 µM | > 100 µM | > 100 µM |  | > 100 µM | > 100 µM | > 100 | > 100
NC(=O)C(=Cc1ccc(CP(=O)(O)O)cc1)C(N)=O | > 100 | > 100 µM |  | > 100 | > 100 | > 100 |  | > 100 | > 100 µM |  |  |  |  |  |  |  |  |  |  | 
O=c1nc(NC(c2ccccc2)(c2ccccc2)c2ccccc2)ccn1CCO |  | > 100 µM | > 100 µM | > 100 | > 100 | > 100 | > 100 µM | > 100 | > 100 µM |  |  |  |  |  |  |  |  |  |  | 
COc1cc(C=O)c(-c2cc3c(cc2C2(C)OCCS2)OCO3)c(OC)c1OC (stereo not drawn) |  | 20.7 µM | > 239 µM | > 75.1 | > 97 | 168 | 82.1 µM | 71.8 | 173 µM |  |  |  |  |  |  |  |  |  |  | 
CC1(C)CCC[C@]2(C)c3cc(O)ccc3CC[C@@H]12 |  | 43.7 µM | 33.4 µM | 41.1 | 36.7 | 33.9 | 48.5 µM |  | 33.6 µM | 33.5 µM | 23.2 µM | 16.4 µM | 21.7 µM | 21.5 µM | 17 µM | 19.4 µM | 16 µM | 16.6 µM |  | 
COC(=O)c1ccc(NC(=O)c2cc(OC)c(OC)c(OC)c2)cc1 | > 100 | > 100 µM | > 100 µM | > 100 | > 100 | > 100 | 4.8 µM | 0.706 | > 100 µM |  |  |  |  |  |  |  |  |  |  | 

From PubChem BioAssay (NCI)
